From patent US20020026053A1, “Novel 3-(substituted) -2- indolinones compounds and use thereof as inhibitors of protein kinase activity” (priority 1997, published 2002)

What was measured:
PDGF-R = PDGF-R Assay (cellular ELISA, U1242 cells); assay type: cell-based; set-up: concentration or dose not given beside the values
Summary of the method: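 Cellular ELISA for receptor autophosphorylation: after 2 hr test-compound treatment of serum-free U1242 cells at 37°C, ligand is added for 5–10 min, cells are lysed (HNTG) and receptor captured by specific antibody. Anti-phosphotyrosine plus secondary antibody with ABTS colour read at 410/630 nm, compared with compound-free control cells.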

EGFR = biological target: T1, EGFR (Homo sapiens, UniProt P00533); assay: Biochemical EGFR Assay; set-up: concentration or dose not given beside the values
T1 construct: endogenous in cells; host or cells: A431 cells (lysate, captured with SUMO1 anti-EGFR antibody)
T1 sequence (P00533 25-1210): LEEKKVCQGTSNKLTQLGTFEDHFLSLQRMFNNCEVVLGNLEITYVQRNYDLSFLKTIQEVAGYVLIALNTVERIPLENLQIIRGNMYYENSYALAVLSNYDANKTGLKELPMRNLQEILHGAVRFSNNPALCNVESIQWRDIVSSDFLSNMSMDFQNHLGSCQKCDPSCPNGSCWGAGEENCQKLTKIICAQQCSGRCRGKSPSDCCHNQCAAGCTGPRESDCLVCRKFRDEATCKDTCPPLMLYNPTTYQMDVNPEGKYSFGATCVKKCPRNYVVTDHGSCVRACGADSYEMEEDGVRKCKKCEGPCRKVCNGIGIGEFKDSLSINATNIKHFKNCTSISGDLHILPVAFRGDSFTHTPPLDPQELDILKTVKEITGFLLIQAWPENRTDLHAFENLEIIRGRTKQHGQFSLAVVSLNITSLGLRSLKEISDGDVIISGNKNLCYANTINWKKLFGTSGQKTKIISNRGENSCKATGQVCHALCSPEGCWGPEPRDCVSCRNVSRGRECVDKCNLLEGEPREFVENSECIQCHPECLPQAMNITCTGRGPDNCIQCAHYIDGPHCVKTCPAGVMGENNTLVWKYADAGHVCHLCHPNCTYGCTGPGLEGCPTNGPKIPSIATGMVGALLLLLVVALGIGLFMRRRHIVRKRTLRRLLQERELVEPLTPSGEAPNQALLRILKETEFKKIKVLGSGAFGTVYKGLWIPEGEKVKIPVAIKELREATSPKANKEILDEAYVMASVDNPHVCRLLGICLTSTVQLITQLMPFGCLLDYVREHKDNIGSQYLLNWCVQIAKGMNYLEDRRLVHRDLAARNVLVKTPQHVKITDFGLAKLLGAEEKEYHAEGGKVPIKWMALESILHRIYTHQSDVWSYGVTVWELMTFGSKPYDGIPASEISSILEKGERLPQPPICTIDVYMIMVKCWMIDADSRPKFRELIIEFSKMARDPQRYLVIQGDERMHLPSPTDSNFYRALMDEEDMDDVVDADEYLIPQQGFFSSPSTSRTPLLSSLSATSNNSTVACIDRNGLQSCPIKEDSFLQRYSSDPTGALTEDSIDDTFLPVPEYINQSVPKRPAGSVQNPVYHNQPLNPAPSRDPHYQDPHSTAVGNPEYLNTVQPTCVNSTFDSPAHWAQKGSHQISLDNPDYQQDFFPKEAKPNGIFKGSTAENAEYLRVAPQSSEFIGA
Procedure: This assay measures the in vitro kinase activity of EGFR using ELISA.
1. Corning 96-well Elisa plates (Corning Catalog No. 25805-96).
2. SUMO1 monoclonal anti-EGFR antibody (Biochemistry Lab, SUGEN, Inc.).
3. PBS (Dulbecco's Phosphate-Buffered Saline, Gibco Catalog No. 450-1300EB).
6. A431 cell lysate (Screening Lab, SUGEN, Inc.)
9. Adenosine-5′-triphosphate (ATP, from Equine muscle, Sigma Cat. No. A-5394).
Prepare a 1.0 mM solution in dH2O. This reagent should be made up immediately prior to use and kept on ice.
Prepare a 1.0 M stock solution in dH2O.
11. ATP/MnCl2 phosphorylation mix
This reagent should be prepared immediately before use and kept on ice
12. NUNC 96-well V bottom polypropylene plates (Applied Scientific Cat. No. AS-72092).
13. Ethylenediaminetetraacetic acid (EDTA)
Prepare 200 mM working solution in dH2O. Adjust to pH 8.0 with 10 N NaOH.
14. Rabbit polyclonal anti-phosphotyrosine serum (Biochemistry Lab, SUGEN, Inc.)
15. Goat anti-rabbit IgG peroxidase conjugate (Biosource Cat. No. ALI0404)
16. ABTS (2,2′-azino-bis(3-ethylbenzthiazoline-6-sulfonic acid), Sigma Cat. No. A-1888).
Mix first two ingredients in about 900 ml dH2O, adjust pH to 4.0 with phosphoric acid. Add ABTS, cover, let sit about 0.5 hr., filter. The solution should be kept in the dark at 4° C. until ready to use.
17. Hydrogen peroxide 30% solution (Fisher Cat. No. H325)
Mix 15 ml ABTS solution and 2.0 μl H2O2. Prepare 5 minutes before use.
1. Coat Corning 96 well ELISA plates with 0.5 μg SUMO1 in 100 μl PBS per well, store overnight at 4° C.
2. Remove unbound SUMO1 from wells by inverting plate to remove liquid. Wash 1× with dH2O. Pat the plate on a paper towel to remove excess liquid.
3. Add 150 μl of Blocking Buffer to each well. Incubate for 30 min. at room temperature with shaking.
4. Wash plate 3× with deionized water, then once with TBST. Pat plate on a paper towel to remove excess liquid and bubbles.
5. Dilute lysate in PBS (7 μg lysate/100 μl PBS)
6. Add 100 μl of diluted lysate to each well. Shake at room temperature for 60 min.
7. Wash plates as described in 4, above.
8. Add 120 μl TBS to ELISA plate containing captured EGFR.
9. Dilute test compound 1:10 in TBS in 96-well polypropylene plates (ie. 10 μl compound+90 μl TBS).
10. Add 13.5 μl diluted test compound to ELISA plate.
11. Incubate for 30 minutes while shaking at room temperature.
13. After 5 minutes, stop reaction by adding 16.5 μl of 200 mM EDTA (pH 8.0) to each well, shaking continuously. After the EDTA has been added, shake for 1 min.
14. Wash 4× with deionized water, twice with TBST.
15. Add 100 μl anti-phosphotyrosine (1:3000 dilution in TBST) per well. Incubate 30-45 min. at room temperature, with shaking.
16. Wash as described in 4, above.
17. Add 100 μl Biosource Goat anti-rabbit IgG peroxidase conjugate (1:2000 dilution in TBST) to each well. Incubate 30 min. at room temperature, with shaking.
18. Wash as described in 4, above.
19. Add 100 μl of ABTS/H2O2 solution to each well.
20. Incubate 5 to 10 minutes with shaking. Remove any bubbles.
21. If necessary stop reaction with the addition of 100 μl 0.2 M HCl per well.
22. Read assay on Dynatech MR7000 ELISA reader. Test Filter: 410 nM Reference Filter: 630 nM

Row | SMILES | PDGF Kinase % Inhibition (P.119) (PDGF-R) | Biochem EGFR % Inhibition (P.167) (EGFR)
1 | CCN(CC)c1ccc(C=C2C(=O)Nc3c(Br)cc(Br)cc32)c(O)c1 [10734/A05] | 2.9% | 22.6%
2 | O=C1Nc2ccc(CCCl)cc2C1=Cc1ccc([N+](=O)[O-])cc1 [10734/G06] | −18.8% | 12.5%
3 | Cc1c(Br)ccc2c1C(=Cc1cc(Cl)cc(Cl)c1O)C(=O)N2 [10734/C03] | 24.5% | 48.6%
4 | O=C1Nc2ccc(S(=O)(=O)N3CCOCC3)cc2C1=Cc1cc(Cl)cc(Cl)c1O [10734/F03] | −24.1% | 24.8%
5 | O=C1Nc2c(Br)cc(Br)cc2C1=Cc1ccc(Br)s1 [10734/A11] | 5.5% | 12.5%
6 | CCN(CC)c1ccc(C=C2C(=O)Nc3ccc(S(=O)(=O)NC)cc32)c(O)c1 [10734/D05] | 8.2% | −9.6%
7 | O=C1Nc2ccc(CCCl)cc2C1=Cc1cc(Cl)ccc1O [10734/G04] | 16.1% | 62.9%
8 | CCOc1cccc(C=C2C(=O)Nc3ccc(S(=O)(=O)N4CCOCC4)cc32)c1O [10734/F02] | 10.4% | 0.7%
9 | CNS(=O)(=O)c1ccc2c(c1)C(=Cc1cc(Cl)cc(Cl)c1O)C(=O)N2 [10734/D03] | 24.1% | 19.6%
10 | CCOc1cccc(C=C2C(=O)Nc3ccc(S(=O)(=O)NC)cc32)c1O [10734/D02] | 6.4% | 5.2%
11 | O=C1Nc2ccc(S(=O)(=O)N3CCOCC3)cc2C1=Cc1ccc(O)c(Br)c1 [10734/F09] | −17.4% | 3.1%
12 | O=C1Nc2ccc(S(=O)(=O)N3CCOCC3)cc2C1=Cc1cc(Br)cc(Br)c1O [10734/F07] | −5.1% | 33.7%
13 | Cc1c(Br)ccc2c1C(=Cc1cc(Br)cc(Br)c1O)C(=O)N2 [10734/C07] | 32.0% | 41.0%
14 | CCOc1cccc(C=C2C(=O)Nc3c(Br)cc(Br)c(C)c32)c1O [10734/H02] | −10.8% | −11.9%
15 | O=C1Nc2c(Br)cc(Br)cc2C1=Cc1cc(Cl)cc(Cl)c1O [10734/A03] | 22.3% | 18.5%
16 | CNS(=O)(=O)c1ccc2c(c1)C(=Cc1cc(Br)cc(Br)c1O)C(=O)N2 [10734/D07] | 28.1% | 51.1%
17 | O=C1Nc2ccc(S(=O)(=O)N3CCOCC3)cc2C1=Cc1ccc([N+](=O)[O-])cc1 [10734/F06] | −21.4% | −17.1%
18 | CCOc1cccc(C=C2C(=O)Nc3ccc(CCCl)cc32)c1O [10734/G02] | 14.8% | 3.4%
19 | O=C1Nc2ccc(S(=O)(=O)N3CCOCC3)cc2C1=Cc1ccc(Br)s1 [10734/F11] | 16.1% | −15.6%

Row | SMILES | PDGF Kinase % Inhibition (P.119) (PDGF-R) | Biochem EGFR % Inhibition (P.167) (EGFR)
20 | Cc1c(Br)cc(Br)c2c1C(=Cc1ccc(Cl)c([N+](=O)[O-])c1)C(=O)N2 [10718/H08] | – | −2.5%
21 | O=C1Nc2ccc(I)cc2C1=Cc1cc(Cl)cc(Cl)c1O [10734/B03] | 13.0% | 45.1%
22 | CC(C)(C)c1ccc(C=C2C(=O)Nc3ccc(S(=O)(=O)Nc4ccc(C(F)(F)F)cc4)cc32)cc1 [10734/E10] | 29.8% | −5.0%
23 | O=C1Nc2ccc(I)cc2C1=Cc1cc(Cl)ccc1O [10734/B04] | 14.4% | 38.7%
24 | CCN(CC)c1ccc(C=C2C(=O)Nc3ccc(Br)c(C)c32)c(O)c1 [10734/C05] | 3.8% | 9.3%
25 | CCOC(=O)c1cc(C=C2C(=O)Nc3c(Br)cc(Br)c(C)c32)oc1C [10718/H06] | – | −5.1%
26 | O=C1Nc2c(Br)cc(Br)cc2C1=Cc1cc(Br)cc(Br)c1O [10734/A07] | 21.9% | 15.2%
27 | O=C1Nc2c(Br)cc(Br)cc2C1=Cc1ccc([N+](=O)[O-])cc1 [10734/A06] | −9.9% | −6.4%
28 | CCOC(=O)c1c(C)[nH]c(C=C2C(=O)Nc3c(Br)cc(Br)c(C)c32)c1C [10718/H02] | – | −22.5%
29 | Cc1c(Br)ccc2c1C(=Cc1ccc(Br)s1)C(=O)N2 [10734/C11] | 9.1% | 18.0%
30 | O=C1Nc2c(Br)cc(Br)cc2C1=Cc1cccc(F)c1O [10734/A08] | 9.1% | 6.8%
31 | O=C1Nc2ccc(S(=O)(=O)Nc3ccc(C(F)(F)F)cc3)cc2C1=Cc1ccc([N+](=O)[O-])cc1 [10734/E06] | 13.5% | 6.3%
32 | CCOc1cccc(C=C2C(=O)Nc3c(Br)cc(Br)cc32)c1O [10734/A02] | −3.8% | 0.0%
33 | CCN(CC)c1ccc(C=C2C(=O)Nc3ccc(S(=O)(=O)Nc4ccc(C(F)(F)F)cc4)cc32)c(O)c1 [10734/E05] | 17.9% | 7.9%
34 | COC(=O)c1[nH]c(C)c(C=C2C(=O)Nc3c(Br)cc(Br)c(C)c32)c1C(=O)OC [10718/H07] | – | −12.0%
35 | O=C1Nc2ccc(S(=O)(=O)Nc3ccc(C(F)(F)F)cc3)cc2C1=Cc1cc(Cl)cc(Cl)c1O [10734/E03] | 27.2% | 55.0%
36 | CCOC(=O)CCc1c(C(=O)OCC)[nH]c(C=C2C(=O)Nc3c(Br)cc(Br)c(C)c32)c1CC(=O)OCC [10718/H05] | – | 0.2%
37 | COc1cc(Br)c(O)c(C=C2C(=O)Nc3c(Br)cc(Br)c(C)c32)c1 [10718/H03] | – | 33.2%
38 | Cc1c(Br)cc(Br)c2c1C(=Cc1ccc3ccccc3c1O)C(=O)N2 [10718/H04] | – | 13.7%
